How the values were obtained:
Edg-8 = target: T1, Edg-8 (Homo sapiens, UniProt Q9H228); experiment: Calcium mobilization assay (FLIPR), inhibition of S1P-stimulated calcium increase; type: cell-based; settings: HTC cells expressing Edg-8
T1 construct: expressed in transfected cells; host or cells: HTC rat hepatoma cells

[1] = tested on: Muscarinic Non-Selective, Central; experiment: Radioligand binding assay, 3H Quinuclidinyl benzilate; design: species or system Wistar rat; settings: significance criteria ≧50% of max stimulation or inhibition
Experimental: (§1) In order to test the selectivity of compounds, various enzyme assays as well as radioligand binding assays were performed using numerous non-Edg receptor targets as listed below.
(§2) A radioligand binding assay was performed using adrenergic α1 according to the method of Greengrass and Bremner 1979, Eur. J. Pharmacol. 55:323-326. A radioligand binding assay was performed using adrenergic α2 according to the method of Boyajian and Leslie, 1987, J. Pharmacol. Exp. Ther. 241:1092-1098. A radioligand binding assay was performed using adrenergic β according to the method of Feve et al., 1994, Proc. Natl. Acad. Sci. USA 91:5677-5681. A radioligand binding assay was performed using angiotensin AT2 according to the method of Whitebread et al., 1991, Biochem. Biophys. Res. Comm. 181:1365-1371. A radioligand binding assay was performed using calcium channel Type L, dihydropyridine according to the method of Ehlert et al., 1982, Life Sci. 30:2191-2202. A radioligand binding assay was performed using dopamine D2L according to the method of Bunzo et al., 1988, Nature 336:783-787. A radioligand binding assay was performed using endothelin ETA according to the method of Mihara et al., 1994, J. Pharmacol. Exp Ther. 268:1122-1127. A radioligand binding assay was performed using histamine H1 Central according to the method of Hill et al., 1978, J. Neurochem. 31:997-1004. […]

Dopamine D2L = target: T2, Dopamine D2L (Homo sapiens, UniProt P14416); experiment: Radioligand binding assay, 3H Spiperone; settings: significance criteria ≧50% of max stimulation or inhibition
T2 construct: expressed in transfected cells; host or cells: CHO cells
Experimental: as §1, §2

Endothelin ETA = target: T3, Endothelin ETA (Homo sapiens, UniProt P25101); experiment: Radioligand binding assay, 125I Endothelin; settings: significance criteria ≧50% of max stimulation or inhibition
T3 construct: expressed in transfected cells; host or cells: CHO cells
T3 sequence (P25101 21-427): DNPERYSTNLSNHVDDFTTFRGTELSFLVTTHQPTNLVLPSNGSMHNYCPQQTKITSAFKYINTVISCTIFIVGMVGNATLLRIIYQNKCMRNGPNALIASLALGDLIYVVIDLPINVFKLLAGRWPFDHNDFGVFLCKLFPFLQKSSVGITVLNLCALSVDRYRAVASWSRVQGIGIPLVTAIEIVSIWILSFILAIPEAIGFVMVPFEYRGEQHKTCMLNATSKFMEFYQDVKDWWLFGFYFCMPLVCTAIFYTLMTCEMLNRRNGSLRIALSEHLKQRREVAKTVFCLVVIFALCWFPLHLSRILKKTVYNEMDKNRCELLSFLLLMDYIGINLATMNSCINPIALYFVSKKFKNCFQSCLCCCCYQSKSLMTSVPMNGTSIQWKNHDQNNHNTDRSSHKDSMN
Experimental: as §1, §2

Edg-3 = target: T4, Edg-3 (Homo sapiens, UniProt Q99500); experiment: Calcium mobilization assay (FLIPR), inhibition of S1P-stimulated calcium increase; type: cell-based; settings: HTC cells expressing Edg-3
T4 construct: expressed in transfected cells; host or cells: HTC rat hepatoma cells

Adrenergic α2 = experiment: Radioligand binding assay, 3H Rauwolscine; design: species or system Wistar rat; settings: significance criteria ≧50% of max stimulation or inhibition
Experimental: as §1, §2

Edg-1 = target: T5, Edg-1 (Homo sapiens, UniProt P21453); experiment: Calcium mobilization assay (FLIPR), inhibition of S1P-stimulated calcium increase; type: cell-based; settings: HTC cells expressing Edg-1
T5 construct: expressed in transfected cells; host or cells: HTC rat hepatoma cells

[2] = concentrations as high as 20 µM

T5 sequence (P21453 whole entry): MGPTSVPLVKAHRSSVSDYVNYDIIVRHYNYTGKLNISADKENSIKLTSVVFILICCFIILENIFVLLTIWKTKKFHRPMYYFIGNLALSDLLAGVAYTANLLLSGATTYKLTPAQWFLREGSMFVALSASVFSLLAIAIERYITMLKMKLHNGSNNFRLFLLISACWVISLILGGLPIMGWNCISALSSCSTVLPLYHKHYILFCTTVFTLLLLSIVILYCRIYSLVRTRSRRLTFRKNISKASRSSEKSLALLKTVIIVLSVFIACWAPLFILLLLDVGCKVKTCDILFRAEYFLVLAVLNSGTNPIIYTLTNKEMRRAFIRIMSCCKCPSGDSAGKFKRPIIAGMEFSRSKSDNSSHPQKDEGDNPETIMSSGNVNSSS
T1 sequence (Q9H228 whole entry): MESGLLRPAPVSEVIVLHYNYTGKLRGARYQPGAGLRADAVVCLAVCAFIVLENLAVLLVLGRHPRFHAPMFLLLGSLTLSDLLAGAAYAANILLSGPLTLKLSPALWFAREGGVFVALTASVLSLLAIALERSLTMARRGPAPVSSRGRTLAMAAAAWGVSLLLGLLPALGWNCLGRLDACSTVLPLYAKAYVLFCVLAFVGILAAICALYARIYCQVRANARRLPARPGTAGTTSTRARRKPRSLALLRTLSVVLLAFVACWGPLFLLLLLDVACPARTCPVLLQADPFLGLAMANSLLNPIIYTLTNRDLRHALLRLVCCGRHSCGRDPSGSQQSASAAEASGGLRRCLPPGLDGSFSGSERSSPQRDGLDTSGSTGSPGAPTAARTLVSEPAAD
T4 sequence (Q99500 whole entry): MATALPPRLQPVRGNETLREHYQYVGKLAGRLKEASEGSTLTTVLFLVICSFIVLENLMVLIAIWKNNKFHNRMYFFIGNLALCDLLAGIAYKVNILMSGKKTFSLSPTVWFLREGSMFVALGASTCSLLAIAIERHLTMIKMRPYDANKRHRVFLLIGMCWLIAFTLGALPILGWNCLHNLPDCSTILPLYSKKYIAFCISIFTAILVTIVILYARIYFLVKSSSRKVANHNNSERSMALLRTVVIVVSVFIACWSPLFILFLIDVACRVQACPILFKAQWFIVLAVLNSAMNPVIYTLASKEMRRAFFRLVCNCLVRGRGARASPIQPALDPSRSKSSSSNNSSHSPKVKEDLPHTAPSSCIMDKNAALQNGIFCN
T2 sequence (P14416 whole entry): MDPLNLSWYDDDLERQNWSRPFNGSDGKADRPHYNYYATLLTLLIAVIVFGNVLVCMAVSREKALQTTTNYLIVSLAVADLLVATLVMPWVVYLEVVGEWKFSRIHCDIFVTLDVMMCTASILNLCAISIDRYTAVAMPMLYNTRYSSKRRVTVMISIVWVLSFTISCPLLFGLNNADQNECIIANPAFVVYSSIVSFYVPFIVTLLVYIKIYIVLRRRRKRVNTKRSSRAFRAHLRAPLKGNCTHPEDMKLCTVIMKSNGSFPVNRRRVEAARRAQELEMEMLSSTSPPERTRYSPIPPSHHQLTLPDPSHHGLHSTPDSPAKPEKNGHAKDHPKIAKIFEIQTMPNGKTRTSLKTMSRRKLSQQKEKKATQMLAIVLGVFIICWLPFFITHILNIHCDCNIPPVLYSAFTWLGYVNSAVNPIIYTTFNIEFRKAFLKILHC

CCOC(=O)c1c(NC(=O)NS(=O)(=O)c2ccccc2Cl)sc2c1CCCC2 [Compound 101]
IC50 (Edg-8): > 20 µM
inhibition of S1P-stimulated calcium increases, Edg-8 (Edg-8; [2]): did not inhibit
activity in radioligand binding assay, Muscarinic, non-selective, central [1]: no significant activity
activity in radioligand binding assay, Dopamine D2L (Dopamine D2L): no significant activity
activity in radioligand binding assay, Endothelin ETA (Endothelin ETA): no significant activity
IC50 (Edg-3): > 20 µM
inhibition of S1P-stimulated calcium increases, Edg-3 (Edg-3; [2]): did not inhibit
activity in radioligand binding assay, Adrenergic Alpha 2, non-selective (Adrenergic α2): no significant activity
IC50 (Edg-1): > 20 µM
inhibition of S1P-stimulated calcium increases, Edg-1 (Edg-1; [2]): did not inhibit

From US20050261298A1, “Methods of treating conditions associated with an Edg-7 receptor” (priority 2002, published 2005)
